Molecular target: T1, human GluR4B receptor (Homo sapiens, UniProt P48058)
T1 construct: expressed in transfected cells
Experiment: potentiation of agonist-induced excitability of human GluR4B receptor expressed in HEK 293 cells
Format: cell-based
Conditions: human GluR4B expressed in HEK 293 cells
Description: The ability of compounds of formula I to potentiate glutamate receptor-mediated response may be determined using fluorescent calcium indicator dyes (Molecular Probes, Eugene, Oreg., Fluo-3) and by measuring glutamate-evoked efflux of calcium into GluR4 transfected HEK293 cells, as described in more detail below.
In one test, 96 well plates containing confluent monolayers of HEK cells stably expressing human GluR4B (obtained as described in European Patent Application Publication Number EP-A1-583917) are prepared. The tissue culture medium in the wells is then discarded, and the wells are each washed once with 200 μl of buffer (glucose, 10 mM, sodium chloride, 138 mM, magnesium chloride, 1 mM, potassium chloride, 5 mM, calcium chloride, 5 mM, N-[2-hydroxyethyl]-piperazine-N-[2-ethanesulfonic acid], 10 mM, to pH 7.1 to 7.3). […]
Each test is then performed as follows. […] A second fluorescent reading is taken after 5 minutes incubation. 15 μl of 400 μM glutamate solution is then added to each well (final glutamate concentration 100 μM), and a third reading is taken. The activities of test compounds and cyclothiazide solutions are determined by subtracting the second from the third reading (fluorescence due to addition of glutamate in the presence or absence of test compound or cyclothiazide) and are expressed relative to enhance fluorescence produced by 100 μM, cyclothiazide.

T1 sequence (P48058 21-902): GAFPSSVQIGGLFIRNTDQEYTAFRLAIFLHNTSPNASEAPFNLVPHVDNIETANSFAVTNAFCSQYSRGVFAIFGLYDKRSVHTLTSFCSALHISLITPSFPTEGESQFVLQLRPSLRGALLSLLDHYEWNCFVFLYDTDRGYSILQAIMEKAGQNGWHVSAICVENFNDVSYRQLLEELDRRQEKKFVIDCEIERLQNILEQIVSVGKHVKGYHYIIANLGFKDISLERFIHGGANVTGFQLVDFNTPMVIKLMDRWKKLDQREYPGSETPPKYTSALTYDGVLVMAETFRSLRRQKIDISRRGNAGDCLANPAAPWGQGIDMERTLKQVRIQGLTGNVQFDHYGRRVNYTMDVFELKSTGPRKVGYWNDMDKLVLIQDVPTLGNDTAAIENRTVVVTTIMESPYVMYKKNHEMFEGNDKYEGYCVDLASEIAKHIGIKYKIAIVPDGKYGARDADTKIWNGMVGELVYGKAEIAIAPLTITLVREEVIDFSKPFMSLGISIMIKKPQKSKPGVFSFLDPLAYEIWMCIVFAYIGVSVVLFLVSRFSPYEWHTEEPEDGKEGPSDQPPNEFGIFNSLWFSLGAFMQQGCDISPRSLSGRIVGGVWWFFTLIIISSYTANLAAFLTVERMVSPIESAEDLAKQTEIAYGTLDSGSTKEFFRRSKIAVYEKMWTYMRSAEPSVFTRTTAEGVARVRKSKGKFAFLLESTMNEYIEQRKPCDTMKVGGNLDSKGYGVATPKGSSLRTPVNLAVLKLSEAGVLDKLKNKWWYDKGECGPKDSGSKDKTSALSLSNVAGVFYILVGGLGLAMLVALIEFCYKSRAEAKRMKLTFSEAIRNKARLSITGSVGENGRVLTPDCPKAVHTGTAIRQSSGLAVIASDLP

SMILES: NS(=O)(=O)c1cc2c(cc1Cl)NC(C1CC3C=CC1C3)NS2(=O)=O (stereo not shown) [cyclothiazide]
- potentiation of agonist-induced excitability of human GluR4B receptor: potentiate agonist-induced excitability
